The supplement of paper PMC11208160

Assay: recombinant barcode read abundance after kanamycin selection (control-corrected) (log10(CPM+1)); higher = more efficient recombination; sequences stand for … in AGTGCAGAGAAAATCGGCCAGTTTTCTCTGCCTGCAGTCCGCATGCCGT…ATTTATGCAGCGGACTGCCTTTCTCCCAAAGTGATAAACCGGACAGTATCATGGACCGGTTTTCCCGGTAATCCGTATTTGCAAGGTTGGTTTCACT; site = the 11-nt target
Summary of the method: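 IS621 bridge RNA target-binding loops were paired with targets in a pooled library tested in E. coli. After co-electroporation with a donor plasmid, cells were plated in two replicates on chloramphenicol/ampicillin LB agar (control) and on chloramphenicol/ampicillin/kanamycin carrying 0.1 mM IPTG. Barcodes at recombinant junctions were counted as counts per million, averaged and control-corrected to give recombination efficiency. Values are log10(CPM+1).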

Sequence | recombinant barcode read abundance (log10)
ATGCTTTGTTGGGTTCTAACCTGTTGCCTAG [ATGCTTTCTAG_LTGcore_GT_RTGcore_CT] (site ATGCTTTCTAG) (LTG core: GT, RTG core: CT) | 0.0408
ATGTCCCACTGGGTTCTAACCTGTTGCTCAG [ATGTCCCCTGA_LTGcore_AC_RTGcore_CT] (site ATGTCCCCTGA) (LTG core: AC, RTG core: CT) | 0.172
ATGTCCCCATGGGTTCTAACCTGTTGCTCAG [ATGTCCCCTGA_LTGcore_CA_RTGcore_CT] (site ATGTCCCCTGA) (LTG core: CA, RTG core: CT) | 0.527
ATGTCCCCTTGGGTTCTAACCTGTTGCTCTA [ATGTCCCCTGA_LTGcore_CT_RTGcore_TA] (site ATGTCCCCTGA) (LTG core: CT, RTG core: TA) | 0.107
ATGTCCCCTTGGGTTCTAACCTGTTGCTCTC [ATGTCCCCTGA_LTGcore_CT_RTGcore_GA] (site ATGTCCCCTGA) (LTG core: CT, RTG core: GA) | 0.0163
ATGTCCCGCTGGGTTCTAACCTGTTGCTCGC [ATGTCCCCTGA_LTGcore_GC_RTGcore_GC] (site ATGTCCCCTGA) (LTG core: GC, RTG core: GC) | 0.103
ATGTCCCTATGGGTTCTAACCTGTTGCTCAG [ATGTCCCCTGA_LTGcore_TA_RTGcore_CT] (site ATGTCCCCTGA) (LTG core: TA, RTG core: CT) | 0.0463
ATGTCCCTATGGGTTCTAACCTGTTGCTCTA [ATGTCCCCTGA_LTGcore_TA_RTGcore_TA] (site ATGTCCCCTGA) (LTG core: TA, RTG core: TA) | 0.208
ATGTCCCTTTGGGTTCTAACCTGTTGCTCAA [ATGTCCCCTGA_LTGcore_TT_RTGcore_TT] (site ATGTCCCCTGA) (LTG core: TT, RTG core: TT) | 0.0472
CATATTAAGTGGGTTCTAACCTGTTGCCTCT [CATATTACTAG_LTGcore_AG_RTGcore_AG] (site CATATTACTAG) (LTG core: AG, RTG core: AG) | 0.0293
CATATTAATTGGGTTCTAACCTGTTGCCTAG [CATATTACTAG_LTGcore_AT_RTGcore_CT] (site CATATTACTAG) (LTG core: AT, RTG core: CT) | 0.195
CATATTACATGGGTTCTAACCTGTTGCCTAG [CATATTACTAG_LTGcore_CA_RTGcore_CT] (site CATATTACTAG) (LTG core: CA, RTG core: CT) | 0.126
CATATTACTTGGGTTCTAACCTGTTGCCTAC [CATATTACTAG_LTGcore_CT_RTGcore_GT] (site CATATTACTAG) (LTG core: CT, RTG core: GT) | 1.01
CATATTAGATGGGTTCTAACCTGTTGCCTTC [CATATTACTAG_LTGcore_GA_RTGcore_GA] (site CATATTACTAG) (LTG core: GA, RTG core: GA) | 0.0675
CATATTAGCTGGGTTCTAACCTGTTGCCTAG [CATATTACTAG_LTGcore_GC_RTGcore_CT] (site CATATTACTAG) (LTG core: GC, RTG core: CT) | 0.73
CATATTAGGTGGGTTCTAACCTGTTGCCTAG [CATATTACTAG_LTGcore_GG_RTGcore_CT] (site CATATTACTAG) (LTG core: GG, RTG core: CT) | 0.182
CATATTATATGGGTTCTAACCTGTTGCCTTA [CATATTACTAG_LTGcore_TA_RTGcore_TA] (site CATATTACTAG) (LTG core: TA, RTG core: TA) | 0.00689
CGAGCCCACTGGGTTCTAACCTGTTGCTGGT [CGAGCCCCTCA_LTGcore_AC_RTGcore_AC] (site CGAGCCCCTCA) (LTG core: AC, RTG core: AC) | 0.0238
CGAGCCCCGTGGGTTCTAACCTGTTGCTGAG [CGAGCCCCTCA_LTGcore_CG_RTGcore_CT] (site CGAGCCCCTCA) (LTG core: CG, RTG core: CT) | 0.587
